# Test results: PMC7298712 (mBio, 2020)
# Target: Risk1 (RT0135; rRisk1 WT) (Rickettsia typhi, UniProt Q68XM2)
# Format: biochemical
# Risk1 (RT0135; rRisk1 WT), sequence (Q68XM2 1-707): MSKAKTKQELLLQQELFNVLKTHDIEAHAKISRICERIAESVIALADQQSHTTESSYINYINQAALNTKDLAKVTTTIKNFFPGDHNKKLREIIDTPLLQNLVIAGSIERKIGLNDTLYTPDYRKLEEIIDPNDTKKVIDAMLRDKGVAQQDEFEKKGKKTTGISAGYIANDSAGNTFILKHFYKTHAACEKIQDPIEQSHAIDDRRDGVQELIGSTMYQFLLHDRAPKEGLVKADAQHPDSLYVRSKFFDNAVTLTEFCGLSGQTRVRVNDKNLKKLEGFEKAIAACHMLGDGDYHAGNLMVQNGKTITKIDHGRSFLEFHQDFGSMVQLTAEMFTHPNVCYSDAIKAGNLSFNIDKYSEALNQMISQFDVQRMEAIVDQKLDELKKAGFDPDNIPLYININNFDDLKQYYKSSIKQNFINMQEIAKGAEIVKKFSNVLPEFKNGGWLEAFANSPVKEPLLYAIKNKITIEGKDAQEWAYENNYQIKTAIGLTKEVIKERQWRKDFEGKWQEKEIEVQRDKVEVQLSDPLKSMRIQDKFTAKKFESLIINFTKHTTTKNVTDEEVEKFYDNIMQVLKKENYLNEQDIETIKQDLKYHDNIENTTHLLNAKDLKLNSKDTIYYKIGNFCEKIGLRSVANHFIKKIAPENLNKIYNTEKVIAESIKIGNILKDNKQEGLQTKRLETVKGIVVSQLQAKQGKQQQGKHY
smiles,measurement,value
COC[C@H]1OC(=O)c2coc3c2[C@@]1(C)C1=C(C3=O)[C@@H]2CCC(=O)[C@@]2(C)C[C@H]1OC(C)=O [wortmannin],"ADP-Glo in vitro kinase assay, inhibition","preincubation with wortmannin significantly inhibited, in a concentration-dependent manner"
